Key:
[1] = test system: LNCaP (with PTEN-null, prostate tumor cell line); experiment: Cell-based viability assay (trypan blue exclusion) in LNCaP cells; details: 72 hours treatment, read-out: LNCaP (with PTEN-null, prostate tumor cell line), IC50 (nM) (using cell trypan blue exclusion assay to detect the cell viability)
Method: 1. Cell-Based Assays: Cells were seeded in 24-well plates with a concentration of 10×10^5 cells/mL/well, and treated with the designated agents in the next day. After 72 hours treatment, cells were harvested and stained using the trypan blue exclusion method and measured using the TC-10™ automated cell counter (Bio-rad).

[2] = test system: downstream targets of PI3K/mTOR in T47D (with PIK3CA mutation, breast tumor cell line); experiment: Western blot detection of downstream targets of PI3K/mTOR in T47D cells; type: cell-based; details: read-out: T47D (with PIK3CA mutation, breast tumor cell line), IC50 (nM) (using Westin blot to detect the downstream targets of PI3K/mTOR)
Method: a. Harvest Cells and Run Cell Extracts on a SDS-PAGE Gel
Cells were harvested bytrypsinization and centrifugation at 500 rpm for 5 min and the supernatant was removed. Cell pellet was resuspended with appropriate volume of 1× lysis buffer (10× lysis buffer from Cell Signaling Technology, Catalog #9803, Boston, Mass.) containing protease inhibitors (Protease Inhibitor Cocktail Tablets, Roche, cat#11 697 498 001 and PMSF, NaF, Na3VO3, Leupeptin and pepstatin A), then directly sonicated the suspension for 5 seconds. Protein concentration was measured using Pierce BAC protein assay kit (catalog #23227). The protein sample was read with EL800 of Bio-TEK at […] wave length and the concentration was calculated. 60 ug protein of each sample was loaded on an 8-15% SDS-PAGE and run at 120V for an appropriate period till the dye front reached the bottom of the gel. […]
b. Transfer the Protein from the Gel to a Membrane
Placed a cassette using pre-wet Watman paper(bio-rad, catalog #1703932), gel and membrane (PVDF membrane with pre-soak in methanol for 3 min, then equilibrated in transfer buffer for 5 min), and performed the transfer using bio-rad transfer system at 100v for 1.5 hr at cool room.
Removed the membrane from the transfer apparatus and placed it in the blocking buffer [5% non-fat dry milk in 1×TBS-T containing NaCl 8 g, Tris-Cl 2.37 g, TrisBase 0.6 g in 1 liter of water (pH 7.6) and 1 ml of Tween-20]. Incubated the membrane in the blocking buffer on a shaker for 0.5-1 hr at room temperature.
Diluted the primary antibody at 1:1000 using TBS-T containing 5% non-fat dry milk, and incubated the membrane in the primary antibody solution on a shaker overnight at 4° C. Then removed the primary antibody solution, and washed the membrane with 1×TBS-T 3 times for 10 min each time. e. Secondary Antibody, Substrate Addition and Film Explosure
Diluted the second antibody (cell signaling technology cat#7076 anti-mouse IgG, HRP-linked antibody, or cat#7074, anti-rabbit IgG, HRP-linked antibody) at 1:3000 using TBS-T containing 5% non-fat dry milk. Decanted the wash buffer and incubated the membrane in the prepared secondary antibody solution on shaker for 2 hr at room temperature. Decanted the secondary antibody solution and washed thoroughly with 1×TBS-T for 3 times for 10 min each time. Prepared for substrate solution: luminal/enhancer solution mix with stable peroxide solution (Amersham ECL Plus™ Western Blotting Detection Reagents. Cat#: RPN2132). Total amount of substrate solution needed was approximate 2 ml per membrane. Placed the membrane with the protein side up on a flat Saran wrap, and dropped the prepared substrate solution over the membrane, and incubated the membrane for 2 minutes. […]

SMILES	IC50 [1] [nM]	IC50 [2] [nM]
COc1ncc(-c2cc3c(C)nc(N)nc3n([C@H]3CC[C@H](OCCO)CC3)c2=O)cc1NS(=O)(=O)c1ccccc1 [Example 1, N-(5-(2-amino-8-(trans-4-(2-hydroxyethoxy)-cyclohexyl)-4-methyl-7-oxo-7,8-dihydropyrido[2,3-d]pyrimidin-6-yl)-2-methoxypyridin-3-yl)benzenesulfonamide]	35	12
COc1ncc(-c2cc3c(C)nc(N)nc3n([C@H]3CC[C@H](OCCO)CC3)c2=O)cc1NS(C)(=O)=O [Example 2, N-(5-(2-amino-8-(trans-4-(2-hydroxyethoxy)cyclohexyl)-4-methyl-7-oxo-7,8-dihydropyrido[2,3-d]pyrimidin-6-yl)-2-methoxypyridin-3-yl)methanesulfonamide]	150	–
CCS(=O)(=O)Nc1cc(-c2cc3c(C)nc(N)nc3n([C@H]3CC[C@H](OCCO)CC3)c2=O)cnc1OC [Example 3, N-(5-(2-amino-8-(trans-4-(2-hydroxyethoxy)cyclohexyl)-4-methyl-7-oxo-7,8-dihydropyrido [2,3-d]pyrimidin-6-yl)-2-methoxypyridin-3-yl)ethanesulfonamide]	140	–
COc1ncc(-c2cc3c(C)nc(N)nc3n([C@H]3CC[C@H](OCCO)CC3)c2=O)cc1NS(=O)(=O)C1CC1 [Example 4, N-(5-(2-amino-8-(trans-4-(2-hydroxyethoxy)cyclohexyl)-4-methyl-7-oxo-7,8-dihydropyrido[2,3-d]pyrimidin-6-yl)-2-methoxypyridin-3-yl)cyclopropanesulfonamide]	130	–
COc1ncc(-c2cc3c(C)nc(N)nc3n([C@H]3CC[C@H](OCCO)CC3)c2=O)cc1NS(=O)(=O)c1ccc(F)cc1 [Example 5, N-(5-(2-amino-8-(trans-4-(2-hydroxyethoxy)cyclohexyl)-4-methyl-7-oxo-7,8-dihydropyrido[2,3-d]pyrimidin-6-yl)-2-methoxypyridin-3-yl)-4-fluorobenzenesulfonamide]	55	–
COc1ncc(-c2cc3c(C)nc(N)nc3n([C@H]3CC[C@H](OCCO)CC3)c2=O)cc1NS(=O)(=O)c1c(F)cccc1F [Example 6, N-(5-(2-amino-8-(trans-4-(2-hydroxyethoxy)cyclohexyl)-4-methyl-7-oxo-7,8-dihydropyrido[2,3-d]pyrimidin-6-yl)-2-methoxypyridin-3-yl)-2,6-difluorobenzenesulfonamide]	60	–
COc1ccc(S(=O)(=O)Nc2cc(-c3cc4c(C)nc(N)nc4n([C@H]4CC[C@H](OCCO)CC4)c3=O)cnc2OC)cc1 [Example 7, N-(5-(2-amino-8-(trans-4-(2-hydroxyethoxy)cyclohexyl)-4-methyl-7-oxo-7,8-dihydropyrido[2,3-d]pyrimidin-6-yl)-2-methoxypyridin-3-yl)-4-methoxybenzenesulfonamide]	40	12
COc1ncc(-c2cc3c(C)nc(N)nc3n([C@H]3CC[C@H](OCCO)CC3)c2=O)cc1NS(=O)(=O)c1ccc(C)cc1 [Example 8, N-(5-(2-amino-8-(trans-4-(2-hydroxyethoxy)cyclohexyl)-4-methyl-7-oxo-7,8-dihydropyrido[2,3-d]pyrimidin-6-yl)-2-methoxypyridin-3-yl)-4-methylbenzenesulfonamide]	45	15
COc1ccc(-c2cc3c(C)nc(N)nc3n(C3CCC(OCCO)CC3)c2=O)cn1 (stereo not shown) [PF-1502, reference compound]	75	85
